pIC50: −log10 of the molar value.
Tested on: 156681-154-R-J1 tumor spheroid viability
Test: Anticancer human tumor 156681-154-R-J1 patient-derived melanoma cell line growth inhibition
Conditions: spheroids with HUVEC and MSC; for pIC50: curve of first compound; for viability, T/C: stronger effect = lower value
Method in brief: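 Complex spheroids of malignant cells with endothelial cells and mesenchymal stem cells; agents alone or combined, from near clinical Cmax (or 10 microM if unknown) down in half-log steps, 0.25% DMSO final.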
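Note: spheroids exposed to compounds for 7 days before readout.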
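Throughout, for viability, T/C: percent of vehicle control viability where 100% = DMSO-treated spheroids.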

Compound: Cc1sc2c(c1C)C(c1ccc(Cl)cc1)=NC(CC(=O)Nc1ccc(O)cc1)c1nnc(C)n1-2 (stereo not given) + Cn1nnc2c(C(N)=O)ncn2c1=O
- pIC50 (second compound 1 µM): < 5.52
- pIC50 (second compound 3.16 µM): 6.07
- pIC50 (second compound 10 µM): 6.89
- pIC50 (second compound 31.6 µM): 7.69
- pIC50 (second compound 100 µM): 7.83
- viability, T/C (second compound 1 µM, first compound 0.00949 µM): 92%
- viability, T/C (second compound 1 µM, first compound 0.03 µM): 76%
- viability, T/C (second compound 1 µM, first compound 0.0949 µM): 81.5%
- viability, T/C (second compound 1 µM, first compound 0.3 µM): 80.7%
- viability, T/C (second compound 1 µM, first compound 0.949 µM): 70.9%
- viability, T/C (second compound 1 µM, first compound 3 µM): 57%
- viability, T/C (second compound 3.16 µM, first compound 0.00949 µM): 90.3%
- viability, T/C (second compound 3.16 µM, first compound 0.03 µM): 70.2%
- viability, T/C (second compound 3.16 µM, first compound 0.0949 µM): 76.4%
- viability, T/C (second compound 3.16 µM, first compound 0.3 µM): 54.9%
- viability, T/C (second compound 3.16 µM, first compound 0.949 µM): 52.4%
- viability, T/C (second compound 3.16 µM, first compound 3 µM): 37.4%
- viability, T/C (second compound 10 µM, first compound 0.00949 µM): 79.1%
- viability, T/C (second compound 10 µM, first compound 0.03 µM): 75.5%
- viability, T/C (second compound 10 µM, first compound 0.0949 µM): 47.9%
- viability, T/C (second compound 10 µM, first compound 0.3 µM): 41.3%
- viability, T/C (second compound 10 µM, first compound 0.949 µM): 35.6%
- viability, T/C (second compound 10 µM, first compound 3 µM): 24.4%
- viability, T/C (second compound 31.6 µM, first compound 0.00949 µM): 62.3%
- viability, T/C (second compound 31.6 µM, first compound 0.03 µM): 43%
- viability, T/C (second compound 31.6 µM, first compound 0.0949 µM): 31.8%
- viability, T/C (second compound 31.6 µM, first compound 0.3 µM): 29%
- viability, T/C (second compound 31.6 µM, first compound 0.949 µM): 22.6%
- viability, T/C (second compound 31.6 µM, first compound 3 µM): 18.6%
- viability, T/C (second compound 100 µM, first compound 0.00949 µM): 53.4%
- viability, T/C (second compound 100 µM, first compound 0.03 µM): 44.5%
- viability, T/C (second compound 100 µM, first compound 0.0949 µM): 26.4%
- viability, T/C (second compound 100 µM, first compound 0.3 µM): 13.6%
- viability, T/C (second compound 100 µM, first compound 0.949 µM): 12.3%
- viability, T/C (second compound 100 µM, first compound 3 µM): 11.7%

Compound: COc1cc(C)[nH]c(=O)c1CN1CCc2c(Cl)cc(C(OC)C3COC3)c(Cl)c2C1=O (stereo not given) + CC[C@@]1(O)C(=O)OCc2c1cc1n(c2=O)Cc2cc3c(CN(C)C)c(O)ccc3nc2-1
- pIC50 (second compound 0.003 µM): < 5.00
- pIC50 (second compound 0.00949 µM): < 5.00
- pIC50 (second compound 0.03 µM): < 5.00
- pIC50 (second compound 0.0949 µM): > 7.50
- pIC50 (second compound 0.3 µM): > 7.50
- viability, T/C (second compound 0.003 µM, first compound 0.0316 µM): 106%
- viability, T/C (second compound 0.003 µM, first compound 0.1 µM): 93.3%
- viability, T/C (second compound 0.003 µM, first compound 0.316 µM): 120%
- viability, T/C (second compound 0.003 µM, first compound 1 µM): 99%
- viability, T/C (second compound 0.003 µM, first compound 3.16 µM): 95.3%
- viability, T/C (second compound 0.003 µM, first compound 10 µM): 96.8%
- viability, T/C (second compound 0.00949 µM, first compound 0.0316 µM): 105%
- viability, T/C (second compound 0.00949 µM, first compound 0.1 µM): 83.2%
- viability, T/C (second compound 0.00949 µM, first compound 0.316 µM): 91.6%
- viability, T/C (second compound 0.00949 µM, first compound 1 µM): 88.7%
- viability, T/C (second compound 0.00949 µM, first compound 3.16 µM): 84.7%
- viability, T/C (second compound 0.00949 µM, first compound 10 µM): 92.3%
- viability, T/C (second compound 0.03 µM, first compound 0.0316 µM): 80.4%
- viability, T/C (second compound 0.03 µM, first compound 0.1 µM): 71.1%
- viability, T/C (second compound 0.03 µM, first compound 0.316 µM): 77%
- viability, T/C (second compound 0.03 µM, first compound 1 µM): 86.3%
- viability, T/C (second compound 0.03 µM, first compound 3.16 µM): 77.7%
- viability, T/C (second compound 0.03 µM, first compound 10 µM): 84.9%
- viability, T/C (second compound 0.0949 µM, first compound 0.0316 µM): 28.8%
- viability, T/C (second compound 0.0949 µM, first compound 0.1 µM): 31.6%
- viability, T/C (second compound 0.0949 µM, first compound 0.316 µM): 34.6%
- viability, T/C (second compound 0.0949 µM, first compound 1 µM): 32.3%
- viability, T/C (second compound 0.0949 µM, first compound 3.16 µM): 32.5%
- viability, T/C (second compound 0.0949 µM, first compound 10 µM): 49.5%
- viability, T/C (second compound 0.3 µM, first compound 0.0316 µM): 38.6%
- viability, T/C (second compound 0.3 µM, first compound 0.1 µM): 42.4%
- viability, T/C (second compound 0.3 µM, first compound 0.316 µM): 38.1%
- viability, T/C (second compound 0.3 µM, first compound 1 µM): 39.4%
- viability, T/C (second compound 0.3 µM, first compound 3.16 µM): 40.1%
- viability, T/C (second compound 0.3 µM, first compound 10 µM): 38.2%
